For 14 compounds, pest or weed control results are on record in US8461181B2, “Fused heterocyclic compound and use thereof” (Sumitomo Chemical Company, Ltd., priority 2009, dated 2013).

What all share (format): in vivo
For one test, the system named is Nilaparvata lugens. Put plainly: Test Example 7: foot drench of rice seedling, thirty first instar larvae of Nilaparvata lugens. Particulars: soil, 144 h, 5 ml drench at foot of rice seedling, kept 7 days, thirty first instar larvae released, further 6 days. The procedure:
The formulations of the present active compounds (11), (13) to (15), (17), (23), (26), (35) to (41), (43) to (45), (48) to (51), (54), (55), (209), (211) and (212) obtained by Formulation Example 5 were diluted with water so that the active ingredient concentration was 500 ppm, to prepare diluted solutions for test. Separately, a rice seedling (2 weeks after sowing, second leaf spreading stage) planted on a plastic cup was drenched at its foot with each 5 ml of the diluted solutions, and kept in a greenhouse of 25° C. for 7 days. Thirty first instar larvae of Nilaparvata lugens were released, and further kept in the greenhouse for 6 days. The number of insect of living Nilaparvata lugens […] on rice was checked, and the control value was calculated according to the following formula. Control value (%)={1-(Cb×Tai)/(Cai×Tb)}×100 Letters in the formula represent the following meanings. Cb: the number of insect before treatment on non-treated district Cai: the number of insect in observation on non-treated district Tb: the number of insect before treatment on treated district Tai: the number of insect in observation on treated district

The subject of test [1] is Aphis gossypii. In words: Test Example 4: foot drench of cucumber seedling in plastic cup, inoculation after 7 days, Aphis gossypii. Conditions: soil, 144 h, 5 ml drench at foot of cucumber seedling in plastic cup, kept 7 days at 25° C., inoculated, further 6 days. As to the method:
The formulations of the present active compounds (3) to (7), (17), (19), (20), (22), (29) to (31), (35) to (37), (39), (41) to (45), (47) to (56), (101), (106), (121) to (123), (128), (131), (137), (139), (143), (145), (147), (211) to (213), (216) and (217) obtained by Formulation Example 5 were diluted with water so that the active ingredient concentration was 500 ppm, to prepare diluted solutions for test. Separately, a cucumber seedling (second true leaf spreading stage) planted on a plastic cup was drenched at its foot with each 5 ml of the diluted solutions, and kept in a greenhouse of 25° C. for 7 days. The cucumber leaf surface was inoculated with 30 Aphis gossypii (whole stage), and further kept in the greenhouse for 6 days, then, the number of insect of living Aphis gossypii […] on the leaves of this cucumber was checked, and the control value was calculated according to the following formula. Control value (%)={1-(Cb×Tai)/(Cai×Tb)}×100 Letters in the formula represent the following meanings. Cb: the number of insect before treatment on non-treated district Cai: the number of insect in observation on non-treated district Tb: the number of insect before treatment on treated district Tai: the number of insect in observation on treated district

Test [2] deals with Aphis gossypii. In words: Test Example 2: foot drench of cucumber seedling on urethane mat, Aphis gossypii. Particulars: soil, 168 h, 5 ml drench at foot of cucumber seedling on urethane mat, inoculated one day after treatment, checked seven days after. The procedure: The formulations of the present active compounds (4), (5), (8), (9), (11), (12), (14), (15), (17), (20), (35) to (45), (48) to (51), (54) to (56), (206), (209) and (211) to (213) obtained by Formulation Example 5 were diluted with water so that the active ingredient concentration was 500 ppm, to prepare diluted solutions for test. Separately, a cucumber seedling (second true leaf spreading stage) planted on a urethane mat was drenched at its foot with each 5 ml of the diluted solutions, and one day after treatment, the cucumber leaf surface was inoculated with 30 Aphis gossypii (whole stage). Further seven days after, the number of insect of living Aphis gossypii […] on the leaves of this cucumber was checked, and the control value was calculated according to the following formula. Control value (%)={1-(Cb×Tai)/(Cai×Tb)}×100 Letters in the formula represent the following meanings. Cb: the number of insect before treatment on non-treated district Cai: the number of insect in observation on non-treated district Tb: the number of insect before treatment on treated district Tai: the number of insect in observation on treated district

A further test has as its system Bemisia tabaci. In words: Test Example 5: spray on tomato seedling with Bemisia tabaci larvae. Conditions: 168 h, 10 ml/cup sprayed on tomato seedling with hatching Bemisia tabaci larvae, 7 days at 25° C. As to the method:
The formulations of the present active compounds (1) to (5), (7) to (15), (17) to (21), (25), (28) to (45), (48) to (56), (101) to (103), (106), (107), (117), (118), (121) to (145), (147) to (151), (153) to (155), (204), (206), (208), (209), (211) to (213) and (216) to (221) obtained by Formulation Example 5 were diluted with water so that the active ingredient concentration was 500 ppm, to prepare spray solutions for test. Separately, on a tomato seedling planted on a plastic cup, Bemisia tabaci adult insects were released and allowed to lay eggs for about 24 hours. The tomato seedling was kept in a greenhouse […], and the above-described spray solutions for test were sprayed at a proportion of 10 ml/cup on the condition of hatching of larvae from the laid eggs, and kept in a greenhouse of 25° C. for 7 days. The number of living larvae on the tomato leaves was checked, and the control value was calculated according to the following formula. Control value (%)={1−(Cb×Tai)/(Cai×Tb)}×100 Letters in the formula represent the following meanings. Cb: the number of insect before treatment on non-treated district Cai: the number of insect in observation on non-treated district Tb: the number of insect before treatment on treated district Tai: the number of insect in observation on treated district

Test [3] deals with Aphis gossypii. In words: Test Example 3: root immersion of cucumber seedling, Aphis gossypii. Particulars: 168 h, cucumber root part immersed in 5 ml, inoculated one day after treatment, checked seven days after. The procedure: The formulations of the present active compounds (18), (19), (21), (22), (24), (25), (28), (31) to (34), (46), (47), (52), (53), (101) to (104), (106) to (108), (112) to (114), (117), (118), (122), (123), (126), (128), (129), (133), (134), (138), (144), (153) to (155) and (157) obtained by Formulation Example 5 were diluted with water so that the active ingredient concentration was 500 ppm, to prepare diluted solutions for test. A root part of a cucumber seedling (first true leaf spreading stage) from which soil had been washed off was immersed in 5 ml of this diluted solution, and one day after treatment, the cucumber leaf surface was inoculated with 30 Aphis gossypii (whole stage). Further seven days after, the number of insect of living Aphis gossypii […] on the leaves of this cucumber was checked, and the control value was calculated according to the following formula. Control value (%)={1-(Cb×Tai)/(Cai×Tb)}×100 Letters in the formula represent the following meanings. Cb: the number of insect before treatment on non-treated district Cai: the number of insect in observation on non-treated district Tb: the number of insect before treatment on treated district Tai: the number of insect in observation on treated district

The structures appear in SMILES notation.

The term pest or weed control denotes how far the test organism was held down. For `Cn1c(-c2ccncc2SCC(F)(F)F)nc2cc(C(F)(F)F)cnc21` [present active compound 54, 3-methyl-2-[3-(2,2,2-trifluoroethylthio)pyridin-4-yl]-6-trifluoromethyl-3H-imidazo[4,5-b]pyridine], the pest or weed control at 500 ppm in the test with Nilaparvata lugens is not below 90%. Take `CSc1cnccc1-c1nc2cc(C(F)(F)F)ccc2n1C` [present active compound 17, 1-methyl-2-(3-methylthiopyridin-4-yl)-5-trifluoromethyl-1H-benzimidazole]: the pest or weed control at 500 ppm in the test on Aphis gossypii [1], in the test on Nilaparvata lugens and in the test on Aphis gossypii [2] was not below 90% throughout. As to `CCSc1cnccc1-c1nc2cc(C(F)(F)F)ccc2n1C` [present active compound 20, 2-(3-ethylthiopyridin-4-yl)-1-methyl-5-trifluoromethyl-1H-benzimidazole], the pest or weed control at 500 ppm in the test with Aphis gossypii [1] and with Aphis gossypii [2] was not below 90% in each case. Turning to `C#Cc1cnccc1-c1nc2cc(C(F)(F)F)cnc2n1C` [present active compound 211, 2-(3-ethynylpyridin-4-yl-)-3-methyl-6-trifluoromethyl-3H-imidazo[4,5-b]pyridine], the pest or weed control at 500 ppm with Nilaparvata lugens is not below 90%. As to `Cn1c(-c2ccncc2C(F)(F)F)nc2cc(C(F)(F)F)cnc21` [present active compound 212, 3-methyl-6-trifluoromethyl-2-(3-trifluoromethylpyridin-4-yl-)-3H-imidazo[4,5-b]pyridine], the pest or weed control at 500 ppm with Nilaparvata lugens was not below 90%. Regarding `CC(C)Oc1cnccc1-c1nc2cc(C(F)(F)F)ccc2n1C` [present active compound 11, 2-(3-isopropoxypyridin-4-yl)-1-methyl-5-trifluoromethyl-1H-benzimidazole], the pest or weed control at 500 ppm with Nilaparvata lugens and in the test on Aphis gossypii [2] was not below 90% each time. Regarding `Cn1c(-c2ccncc2C#N)nc2cc(C(F)(F)F)cnc21` [present active compound 118], the pest or weed control at 500 ppm in the test on Bemisia tabaci and with Aphis gossypii [3] was not below 90% throughout.

Turning to `Cn1c(-c2ccncc2SC(C)(C)C)nc2cc(C(F)(F)F)cnc21` [present active compound 107], the pest or weed control at 500 ppm in the test with Bemisia tabaci was not below 90%. On to `CNS(=O)(=O)c1cnccc1-c1nc2cc(C(F)(F)F)cnc2n1C` [present active compound 117], for which the pest or weed control at 500 ppm with Bemisia tabaci and with Aphis gossypii [3] was not below 90% in each case. Regarding `Cn1c(-c2cc[n+]([O-])cc2)nc2cc(C(F)(F)F)cnc21` [present active compound 55, 3-methyl-2-(1-oxypyridin-4-yl)-6-trifluoromethyl-3H-imidazo[4,5-b]pyridine], the pest or weed control at 500 ppm with Nilaparvata lugens was not below 90%.

Compound `Cn1c(-c2ccncc2OCC(F)F)nc2cc(C(F)(F)F)ccc21` [present active compound 14, 2-[3-(2,2-difluoroethoxy)-pyridin-4-yl]-1-methyl-5-trifluoromethyl-1H-benzimidazole] showed a pest or weed control at 500 ppm with Aphis gossypii [2] not below 90%. `CCn1c(-c2ccncc2)nc2ccc(C(F)(F)F)cc21` [present active compound 204, 1-ethyl-2-pyridin-4-yl-6-trifluoromethyl-1H-benzimidazole] registered a pest or weed control at 500 ppm with Bemisia tabaci not below 90%.

As for `Cn1c(-c2ccnc(F)c2)nc2cc(C(F)(F)F)ccc21` [present active compound 26, 2-(2-fluoropyridin-4-yl)-1-methyl-5-trifluoromethyl-1H-benzimidazole], the pest or weed control at 500 ppm with Nilaparvata lugens is not below 90%.

`CC(C)Sc1cnccc1-c1nc2cc(C(F)(F)F)ccc2n1C` [present active compound 23, 2-(3-isopropylthiopyridin-4-yl)-1-methyl-5-trifluoromethyl-1H-benzimidazole]: the pest or weed control at 500 ppm in the test on Nilaparvata lugens was not below 90%.
